Measurements: patent publication US20250206716A1, “Crystal form of Vonoprazan pyroglutamate and preparation method therefor” (HARWAY PHARMA CO., LTD, priority 2022, published 2025)
Counter-ions that a name gives are not always drawn.

What was measured:
[1] = Deliquescence test (storage at 40° C. and 75% relative humidity); assay type: physicochemical; set-up: key: “Absence of deliquescence” refers to that no moisture absorption is observed on the sample surface; Slight: “slight deliquescence” refers to that moisture absorption is observed on the sample surface; Obvious: “obvious deliquescence” refers to that lubrication can be observed on the sample surface
Protocol: • (1) Deliquescence test: The product A, crystal form I, and TAK-438 were stored at 40° C. and 75% relative humidity and observed for deliquescence for 30 days, with results recorded every 10 days as detailed in the table below.
(§1) “Absence of deliquescence” refers to that no moisture absorption is observed on the sample surface, “slight deliquescence” refers to that moisture absorption is observed on the sample surface, and “obvious deliquescence” refers to that lubrication can be observed on the sample surface. • (2) Thermal stability test: The product A and crystal form I were stored separately in open containers at 60° C. and tested for storage stability after 30 days (Day 31). Samples at initial and after 30 days of storage were tested for purity by HPLC with three replicates per sample and averaged and the results are presented in the following table.

[2] = Thermal stability test (open containers at 60° C., purity by HPLC); assay type: physicochemical; settings: mean of three replicates; for Purity (%), Day 31: HPLC purity after 30 days in open container at 60° C.; for Purity (%), Initial point: HPLC purity before storage
Protocol: The chromatographic conditions for HPLC purity testing of the product involved in the present invention are as follows:
Column: Ultimate XB-C18, column length: 150 mm, inner diameter: 4.6 mm, particle size: 5 μm
Flow rate: 1.2 mL/min; column temperature: 30° C.; wavelength: 210 nm; injection volume: 20 μL; solvent: acetonitrile-water (volume ratio 5:95)
Mobile phase A: acetonitrile-0.02 mol/L potassium dihydrogen phosphate (adjusted to pH 2.5 with phosphoric acid) (volume ratio 5:95)
Mobile phase B: methanol-acetonitrile-0.02 mol/L potassium dihydrogen phosphate (adjusted to pH 2.5 with phosphoric acid) (volume ratio 7:63:30)
The proportions of mobile phases A and B over time are as follows:
as §1

H^+K^+-ATPase = target: T1, H^+K^+-ATPase (Sus scrofa, UniProt P19156); assay: Inhibition of H^+K^+-ATPase in microsomal vesicles of porcine gastric mucosa; assay type: biochemical; settings: pH 6.8, inorganic phosphorus readout
T1 construct: H^+K^+ATPase was extracted from porcine gastric mucosal microsomal vesicles by iPhase; tissue iPhase; host or cells: porcine gastric mucosa, microsomal vesicles
Description: Test method: H^+K^+-ATPase is an ATPase localized in gastric mucosal parietal cells and activated exclusively by K^+. In this experiment, H^+K^+-ATPase was extracted from the microsomal vesicles of porcine gastric mucosa, and ATPase could decompose ATP to generate ADP and inorganic phosphorus. The test article combined H^+K^+-ATPase and inhibited its activity. The level of ATPase activity was judged by measuring the amount of inorganic phosphorus, and the inhibitory effect of the test article was determined.
H^+K^+ATPase was extracted from porcine gastric mucosal microsomal vesicles by iPhase.
100 mM TRIS-HCL (PH 6.8): 100 μL 1M TRIS-HCL was added to 900 μl ddH2O and mixed well.
37.5 mM MgCl2: 50 mg MgCl2 was added to […] ddH2O and mixed well. 200 mM KCl: 500 mg KCl was added to 33.5 mL ddH2O and mixed well. 10 mM nigericin and valinomycin: 669 μl and 890 μL DMSO were added and mixed, dispensed into 1 μL nigericin and 5 μl valinomycin per tube, and stored at −20° C.
0.1 mg/ml microsomal vesicles: Protein concentrations were determined upon arrival and dispensed, stored at −80° C., and diluted with 5 mM TRIS-HCL for use.
Control compound: TAK438 was prepared as a 10 mM stock solution in DMSO and dispensed in 1 μL per tube.
Test compound: Product A and crystal form I were prepared as 10 mM stock solutions in ddH2O, and dispensed in 1 μL per tube.
With 20 μM (or 40 μM) as the highest concentration, the control compound and the test compound were diluted stepwise 3-fold with DMSO and ddH2O, respectively, to obtain the samples to be tested at 6 (or 7 or 8) concentration gradients.
Water bath at 37° C. for 30 min, 16.5 μL ATP added and mixed well, and water bath at 37° C. for 30 min
The chromogenic agent was prepared based on the instructions of *H^+K^+ ATP kit (Nanjing Jiancheng).
Per the enzymatic reaction volume of 150 μL, 45 μl of chromogen was added and mixed well, allowed to stand for 2 min, and the absorbance light signal at 660 nm was read by a microplate reader.
• 1) The inhibition rate was calculated according to the following formula: […]

[3] = tested on: histamine-induced gastric acid secretion; assay: Effect on histamine-induced gastric acid secretion in rats; assay type: in vivo, SD rats
Description: Surgical modeling: Rats were anesthetized with intraperitoneal injection of ethyl carbamate at a dose of 1.5 g/kg. Rats under complete anesthesia were shaved from the neck and abdomen, and were intubated to maintain airway patency during surgery. The cardiac perfusion tube was orally inserted about 1 cm into the stomach of rats, and the other end of the cardiac perfusion tube was connected to a constant flow pump. A small incision was made below the xiphoid cartilage to find the duodenum, an incision was made transversely, the end of the collection tube of gastric pyloric samples was passed along the duodenum into the stomach about 1 cm through the wound, the duodenum was tightened with the collection tube of gastric pyloric samples with a suture, and the other end of the duodenal incision was tightened. Gastric lavage remnants were rapidly flushed along the esophago-cardia cannula with 150 mL of 37° C. prewarmed saline, outflowed through the collection tube of gastric pylorus samples, and the abdominal wall was sutured to the skin. Perfusion was continued with normal saline at a rate of 1 mL/min for 30 min, the other end of the col-lection tube for gastric pyloric samples was left in vitro, gastric juice samples were collected in conical flasks (one sample per 20 min of col-lection), and two basal gastric juice samples were collected, at which time basal gastric acid secretion reached a steady state.
Histamine-induced gastric acid secretion: Histamine was administered to rats by continuous tail vein injection with a microinjection pump at a dose of 20 μmol/kg/hr. Gastric acid was collected after 80 min, and after three time points, histamine secretion reached a steady state in rats, which was grouped according to the value of gastric acid secretion after histamine administration in rats, and candidate drugs or vehicle controls were administered based on the protocol. […] The details are as follows:
The required amount of Vonoprazan fumarate was weighed, added with an appropriate amount of 0.5% CMC-Na, stirred, sonicated to obtain a homogeneous suspension, and diluted sequentially to the corresponding concentration according to the concentration required by the protocol.
The required amount of HW-N2001 was weighed, added with appropriate physiological saline, and mixed thoroughly to obtain a clear solution, and the pH was adjusted to a range of 3.2 to 3.8. Based on the concentrations required by the protocol, the corresponding concentrations were successively diluted.
One hundred and eighteen of 130 SD rats in good health were selected and randomly divided into 8 groups according to body weight and base-line value after histamine administration after the end of the adaptation period, as detailed in the table below.
Collected gastric juice samples were taken and titrated with 0.01 N sodium hydroxide solution by a basic burette to PH7 as the endpoint, with the phenolphthalein indicator as a color indicator. The titration volume was measured and the acid secretion is calculated according to the following formula: acid secretion (μEq)=volume of NaOH (mL)×10^−3×0.01 mol/L×10^6.
Two basal gastric juice samples were collected, and an infusion extension tube prematurely inhaled with histamine was connected to the indwelling needle of tail vein in rats after basal gastric acid levels were stabilized. The syringe pump was opened, and histamine was calculated according to the dose of 20 μmol/kg/hr and the intravenous drip rate of each animal in the syringe pump was set. Gastric acid samples after histamine administration were collected after 80 minutes of continuous injection of histamine solution.

[4] = 0.375 mg/kg i.v., 60 min after administration
[5] = 0.375 mg/kg i.v., 180 min after administration
[6] = 0.75 mg/kg i.v., 20 min after administration
[7] = 1.5 mg/kg i.v., 20 min after administration
[8] = 1.5 mg/kg i.v., 80 min after administration
[9] = 1.5 mg/kg i.v., 180 min after administration
[10] = 2 mg/kg i.d., 60 min after administration
[11] = 2 mg/kg i.d., 180 min after administration
[12] = 4 mg/kg i.d., 40 min after administration
[13] = 4 mg/kg i.d., 180 min after administration

T1 sequence (P19156 2-1034 limits assumed): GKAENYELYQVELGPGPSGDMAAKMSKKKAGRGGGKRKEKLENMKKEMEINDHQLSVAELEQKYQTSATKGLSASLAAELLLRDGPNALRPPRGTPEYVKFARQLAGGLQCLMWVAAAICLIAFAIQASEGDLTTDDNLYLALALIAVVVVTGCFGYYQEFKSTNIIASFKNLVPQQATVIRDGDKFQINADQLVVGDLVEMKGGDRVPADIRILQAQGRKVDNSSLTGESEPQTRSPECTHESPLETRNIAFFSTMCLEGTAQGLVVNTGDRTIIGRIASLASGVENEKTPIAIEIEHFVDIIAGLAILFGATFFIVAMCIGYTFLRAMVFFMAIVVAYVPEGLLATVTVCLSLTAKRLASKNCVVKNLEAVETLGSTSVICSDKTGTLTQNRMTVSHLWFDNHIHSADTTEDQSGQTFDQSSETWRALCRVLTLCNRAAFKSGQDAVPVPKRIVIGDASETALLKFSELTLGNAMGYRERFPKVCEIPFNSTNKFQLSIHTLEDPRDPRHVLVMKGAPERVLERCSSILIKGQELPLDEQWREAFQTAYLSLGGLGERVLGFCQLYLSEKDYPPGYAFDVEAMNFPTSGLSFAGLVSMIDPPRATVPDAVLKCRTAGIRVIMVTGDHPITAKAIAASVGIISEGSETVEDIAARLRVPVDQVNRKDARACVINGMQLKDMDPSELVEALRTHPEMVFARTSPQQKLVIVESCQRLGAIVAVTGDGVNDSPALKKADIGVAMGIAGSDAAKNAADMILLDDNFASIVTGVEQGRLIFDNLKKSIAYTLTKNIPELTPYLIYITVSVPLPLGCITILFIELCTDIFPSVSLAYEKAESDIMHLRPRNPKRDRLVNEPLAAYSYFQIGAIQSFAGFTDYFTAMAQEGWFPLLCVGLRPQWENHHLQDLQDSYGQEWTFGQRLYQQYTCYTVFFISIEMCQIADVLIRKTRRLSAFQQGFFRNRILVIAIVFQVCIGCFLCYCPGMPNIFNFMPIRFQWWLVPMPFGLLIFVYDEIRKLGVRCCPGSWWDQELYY
T1 sequence (P18434 whole entry partner): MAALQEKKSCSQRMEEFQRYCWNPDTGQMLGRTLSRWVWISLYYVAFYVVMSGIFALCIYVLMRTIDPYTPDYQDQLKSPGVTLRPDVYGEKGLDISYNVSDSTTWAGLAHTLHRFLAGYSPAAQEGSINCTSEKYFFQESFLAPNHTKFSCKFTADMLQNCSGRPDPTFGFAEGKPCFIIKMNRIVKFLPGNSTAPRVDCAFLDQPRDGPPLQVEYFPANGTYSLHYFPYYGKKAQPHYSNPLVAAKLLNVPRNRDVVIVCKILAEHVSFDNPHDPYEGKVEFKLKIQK

5-(2-fluorophenyl)-N-methyl-1-(3-pyridylsulfonyl)-1H-pyrrole-3-methylamine pyroglutamate [Crystal form I]
Deliquescence, Day 10 [1]: Absence of | Deliquescence, Day 20 [1]: Slight | Deliquescence, Day 30 [1]: Obvious | Purity (%), Day 31 [2]: 99.2% | Purity (%), Initial point [2]: 99.8% | IC50 (H^+K^+-ATPase): 40.4 nM | Gastric acid secretion [3, 4]: 39.15±8.54 μEq HCl/20 min | Inhibition rate of gastric acid secretion [3, 4]: 4.34%±1.28 | Gastric acid secretion [3, 5]: 28.46±5.71 μEq HCl/20 min | Inhibition rate of gastric acid secretion [3, 5]: 27.52%±1.43 | Gastric acid secretion [3, 6]: 37.53±9.87 μEq HCl/20 min | Inhibition rate of gastric acid secretion [3, 6]: 11.6%±0.82 | Inhibition rate of gastric acid secretion ([3]; 0.75 mg/kg i.v., 180 min after administration): 73.68%±1.47 | Gastric acid secretion [3, 7]: 25.67±10.15 μEq HCl | Inhibition rate of gastric acid secretion [3, 7]: 33.28%±0 | Gastric acid secretion [3, 8]: 3.4±1.18 μEq HCl | Inhibition rate of gastric acid secretion [3, 8]: 89.64%±0 | Gastric acid secretion [3, 9]: 2.2±0.56 μEq HCl | Inhibition rate of gastric acid secretion [3, 9]: 93.56%±0.09 | Time after administration at which pharmacodynamic effect reached a stable state ([3]; 0.75 and 1.5 mg/kg i.v.): 60 to 100 min | Time after administration at which pharmacodynamic effect was gradually exerted ([3]; 0.75 and 1.5 mg/kg i.v.): 20 min | ID50 ([3]; intravenous administration, 180 min after administration): 0.53 mg/kg

5-(2-fluorophenyl)-N-methyl-1-(3-pyridylsulfonyl)-1H-pyrrole-3-methylamine pyroglutamate [Product A]
Deliquescence, Day 10 [1]: Slight | Deliquescence, Day 20 [1]: Obvious | Deliquescence, Day 30 [1]: Obvious | Purity (%), Day 31 [2]: 94.6% | Purity (%), Initial point [2]: 98.0% | IC50 (H^+K^+-ATPase): 53.4 nM

CNCc1cc(-c2ccccc2F)n(S(=O)(=O)c2cccnc2)c1 [TAK-438, Vonoprazan fumarate]
Deliquescence, Day 10 [1]: Absence of | Deliquescence, Day 20 [1]: Absence of | Deliquescence, Day 30 [1]: Absence of | IC50 (H^+K^+-ATPase): 41.5 nM | Gastric acid secretion after administration vs vehicle ([3]; 1 mg/kg i.d., rats): not significantly decreased | Time after administration at which pharmacodynamic effect was gradually exerted ([3]; 2 mg/kg i.d.): 60 min | Gastric acid secretion [3, 10]: 33.21±15.63 μEq HCl/20 min | Inhibition rate of gastric acid secretion [3, 10]: 13.71%±2.12 | Gastric acid secretion [3, 11]: 16.21±14.46 μEq HCl/20 min | Inhibition rate of gastric acid secretion [3, 11]: 57.48%±2.27 | Time after administration at which pharmacodynamic effect was gradually exerted ([3]; 4 mg/kg i.d.): 140 min | Gastric acid secretion [3, 12]: 33.18±11.15 μEq HCl/20 min | Inhibition rate of gastric acid secretion [3, 12]: 12.47%±1.13 | Gastric acid secretion [3, 13]: 4.41±4.02 μEq HCl/20 min | Inhibition rate of gastric acid secretion [3, 13]: 87.03%±0.81 | Time at which strongest efficacy was reached ([3]; duodenal administration): 180 min | ID50 ([3]; duodenal administration, 180 min): 1.87 mg/kg
